Reference: ChEMBL document CHEMBL4507268 (2021)

Experiments:
Conditions in all cases: Compound concentration 1000.0 nM
[1] = target: T1, Tyrosine-protein kinase Tec (Homo sapiens) (UniProt P42680)
T1 sequence (whole entry): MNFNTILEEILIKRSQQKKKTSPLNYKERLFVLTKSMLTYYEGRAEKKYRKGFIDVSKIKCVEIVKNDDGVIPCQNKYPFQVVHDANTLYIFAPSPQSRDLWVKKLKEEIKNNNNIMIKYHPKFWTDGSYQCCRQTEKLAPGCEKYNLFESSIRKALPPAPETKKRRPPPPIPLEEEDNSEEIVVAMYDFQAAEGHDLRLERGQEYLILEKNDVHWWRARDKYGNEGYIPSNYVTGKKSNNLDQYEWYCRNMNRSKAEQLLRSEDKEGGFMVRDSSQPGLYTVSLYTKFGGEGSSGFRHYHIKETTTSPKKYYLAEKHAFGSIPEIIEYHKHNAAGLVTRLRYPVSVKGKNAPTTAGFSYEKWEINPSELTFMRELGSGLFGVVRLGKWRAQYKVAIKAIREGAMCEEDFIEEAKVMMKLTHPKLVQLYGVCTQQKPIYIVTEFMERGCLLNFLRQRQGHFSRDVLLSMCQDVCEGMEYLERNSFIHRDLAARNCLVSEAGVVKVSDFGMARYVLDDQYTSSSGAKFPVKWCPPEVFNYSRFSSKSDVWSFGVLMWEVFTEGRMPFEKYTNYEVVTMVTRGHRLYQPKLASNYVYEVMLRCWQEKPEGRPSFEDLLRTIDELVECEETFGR

[2] = target: T2, Ephrin type-B receptor 1 (Homo sapiens) (UniProt P54762)
T2 sequence (whole entry): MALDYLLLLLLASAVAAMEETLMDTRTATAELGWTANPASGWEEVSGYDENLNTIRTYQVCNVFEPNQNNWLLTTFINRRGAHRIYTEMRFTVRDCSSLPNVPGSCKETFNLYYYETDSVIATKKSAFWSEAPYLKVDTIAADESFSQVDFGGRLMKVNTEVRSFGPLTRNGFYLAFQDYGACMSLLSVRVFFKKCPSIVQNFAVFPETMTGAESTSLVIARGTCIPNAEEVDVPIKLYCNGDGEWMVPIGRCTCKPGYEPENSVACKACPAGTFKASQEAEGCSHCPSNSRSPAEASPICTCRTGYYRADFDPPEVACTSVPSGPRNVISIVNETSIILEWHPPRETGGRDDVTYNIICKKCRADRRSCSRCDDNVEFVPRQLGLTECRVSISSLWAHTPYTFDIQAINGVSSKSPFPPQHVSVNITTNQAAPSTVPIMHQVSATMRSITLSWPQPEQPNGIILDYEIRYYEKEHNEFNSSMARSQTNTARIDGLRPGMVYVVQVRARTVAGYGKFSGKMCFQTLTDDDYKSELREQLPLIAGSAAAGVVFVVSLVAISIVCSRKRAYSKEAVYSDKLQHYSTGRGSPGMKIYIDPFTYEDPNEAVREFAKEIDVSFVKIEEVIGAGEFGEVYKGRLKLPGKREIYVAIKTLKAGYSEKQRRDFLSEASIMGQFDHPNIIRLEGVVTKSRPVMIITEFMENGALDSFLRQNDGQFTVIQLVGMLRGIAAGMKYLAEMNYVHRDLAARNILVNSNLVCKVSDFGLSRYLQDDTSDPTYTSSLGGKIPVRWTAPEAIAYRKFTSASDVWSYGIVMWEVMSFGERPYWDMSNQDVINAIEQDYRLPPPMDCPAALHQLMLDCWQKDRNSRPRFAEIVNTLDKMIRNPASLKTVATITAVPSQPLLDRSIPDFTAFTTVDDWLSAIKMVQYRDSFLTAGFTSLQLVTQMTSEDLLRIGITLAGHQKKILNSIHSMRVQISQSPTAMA

[3] = target: Ribosomal protein S6 kinase alpha-1 (Homo sapiens) (UniProt Q15418)
Ribosomal protein S6 kinase alpha-1 (Homo sapiens), sequence (Q15418 whole entry): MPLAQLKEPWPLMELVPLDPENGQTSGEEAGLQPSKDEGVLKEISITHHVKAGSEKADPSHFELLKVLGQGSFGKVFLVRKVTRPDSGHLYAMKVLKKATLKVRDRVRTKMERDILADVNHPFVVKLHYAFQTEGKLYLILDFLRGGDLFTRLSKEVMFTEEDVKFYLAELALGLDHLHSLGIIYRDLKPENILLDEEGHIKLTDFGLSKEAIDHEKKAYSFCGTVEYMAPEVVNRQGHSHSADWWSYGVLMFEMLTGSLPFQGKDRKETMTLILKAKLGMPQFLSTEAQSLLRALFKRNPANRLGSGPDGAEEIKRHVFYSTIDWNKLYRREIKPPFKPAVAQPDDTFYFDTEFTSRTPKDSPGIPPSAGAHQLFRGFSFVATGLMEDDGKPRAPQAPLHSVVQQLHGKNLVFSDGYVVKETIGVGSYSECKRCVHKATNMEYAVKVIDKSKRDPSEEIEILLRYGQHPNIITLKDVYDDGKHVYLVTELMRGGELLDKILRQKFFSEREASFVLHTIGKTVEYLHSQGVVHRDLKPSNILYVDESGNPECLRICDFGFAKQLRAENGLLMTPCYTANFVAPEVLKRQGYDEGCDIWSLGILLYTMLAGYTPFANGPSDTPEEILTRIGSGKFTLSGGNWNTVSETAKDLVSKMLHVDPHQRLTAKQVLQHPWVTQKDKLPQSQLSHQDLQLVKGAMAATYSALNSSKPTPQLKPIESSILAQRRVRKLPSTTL

[4] = target: T3, Mitogen-activated protein kinase kinase kinase kinase 3 (Homo sapiens) (UniProt Q8IVH8)
T3 sequence (whole entry): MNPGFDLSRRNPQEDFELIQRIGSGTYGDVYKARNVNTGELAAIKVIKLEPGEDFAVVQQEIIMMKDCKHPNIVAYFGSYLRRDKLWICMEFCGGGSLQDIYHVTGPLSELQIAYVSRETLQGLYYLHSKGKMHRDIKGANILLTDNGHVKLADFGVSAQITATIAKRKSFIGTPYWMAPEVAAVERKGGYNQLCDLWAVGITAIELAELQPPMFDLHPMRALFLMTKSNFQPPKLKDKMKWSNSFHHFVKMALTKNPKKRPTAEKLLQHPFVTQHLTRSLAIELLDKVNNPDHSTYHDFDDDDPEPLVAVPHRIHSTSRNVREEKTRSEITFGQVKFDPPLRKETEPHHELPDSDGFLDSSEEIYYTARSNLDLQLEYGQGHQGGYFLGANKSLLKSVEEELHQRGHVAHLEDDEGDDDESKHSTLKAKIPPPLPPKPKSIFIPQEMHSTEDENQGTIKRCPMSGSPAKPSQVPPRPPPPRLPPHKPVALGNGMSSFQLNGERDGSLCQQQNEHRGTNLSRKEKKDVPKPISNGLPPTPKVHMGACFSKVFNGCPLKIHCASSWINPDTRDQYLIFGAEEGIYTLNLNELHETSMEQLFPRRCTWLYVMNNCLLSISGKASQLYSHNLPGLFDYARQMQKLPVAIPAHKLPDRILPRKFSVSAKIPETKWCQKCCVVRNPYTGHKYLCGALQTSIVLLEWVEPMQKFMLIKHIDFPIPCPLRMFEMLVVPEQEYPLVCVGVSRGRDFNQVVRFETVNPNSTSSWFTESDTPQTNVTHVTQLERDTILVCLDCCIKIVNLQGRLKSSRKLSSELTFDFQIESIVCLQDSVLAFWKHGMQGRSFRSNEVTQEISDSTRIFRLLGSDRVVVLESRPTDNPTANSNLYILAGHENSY

Measured: residual activity

Cc1nc(C2CCN(C(=O)c3ccc(OC(F)(F)F)cc3N)CC2)c2ncc(N3CCN(C)CC3)cc2n1 [BAY-693]
inactive: [1] 96% | [2] 95% | [3] 100% | [4] 100%

CN1CCN(c2cnc3c(C4CCN(C(=O)c5ccc(OC(F)(F)F)cc5N)CC4)ncnc3c2)CC1 [BAY-885]
inactive: [1] 100% | [2] 100% | [3] 100% | [4] 100%
